As a reminder, the IC50 is the concentration that inhibits the measured activity by half. For orientation: melting point means the temperature of the solid-liquid transition.

Values joined by “and” are separate entries in the source; they are usually repeats but may differ in a detail not shown here. Equal values may be shown once. Marks after values point to notes of the source that are not given here.

Data set [1] has as its system NHDF cells. As to the kind of experiment: RNS (NO) level, Griess reagents after LPS preincubation. It counts as cell-based. To be noted: 100 µM compound for 1 h after 24 h with 50 µM LPS; (SD) n = 6. On the procedure:
(§1) The ROS and RNS were evaluated using DCF–DA assay and Griess reagents, respectively. First, the cells were incubated with 50 µM LPS for 24 h to induce cell stress. Then, after the cells were washed, the 100 µM tested compounds were added for 1 h. Finally, the 50 µL supernatant was transferred to a new plate and added 50 µL of mixture A (1% sulfanilamide in 5% phosphoric acid) and B (0.1% N-(1-Naphthyl)ethylenediamine dihydrochloride) Griess reagents in a volume ratio 1:1 for 20 min in the dark. After that time, the absorbance was measured at 540 nm using a microplate reader. Simultaneously, the rest of the supernatant was removed from the above cell cultures, and 25 µM DCF–DA solution in MEM (without serum and phenol red) was added and left at 37 °C for 1 h and finally, determined fluorometrically with excitation at 485 nm and emission at 535 nm using a microplate reader.
(§2) The NO level was presented as concentration calculated using a standard curve (prepared in parallel with the conducted research). The ROS level was shown as ratio E/E0, where E0 is fluorescence with the positive control (cells incubated with 50 µM LPS) and E is a fluorescence with tested compound at 100 µM. Finally, the DNA damage was calculated as the ratio of cell nucleus diameter to halo diameter (a measure of DNA damage).
(§3) All statistical analysis performed were compared to the control—healthy cells (MTT assay), and positive control (incubated with 50 µM LPS) for DCF–DA, Griess, and DNA damaged. The data have a normal distribution and equality of variance, so ANOVA and post-hoc Scheffe methods were performed. The significance level was set at p < 0.05.
On the technique in general: Griess reagent forms a coloured azo dye with nitrite.

In a further data set the target is T1, COX-2 (Homo sapiens, UniProt P35354).
T1 construct: purchased Cayman 701050
T1 sequence (P35354 18-604): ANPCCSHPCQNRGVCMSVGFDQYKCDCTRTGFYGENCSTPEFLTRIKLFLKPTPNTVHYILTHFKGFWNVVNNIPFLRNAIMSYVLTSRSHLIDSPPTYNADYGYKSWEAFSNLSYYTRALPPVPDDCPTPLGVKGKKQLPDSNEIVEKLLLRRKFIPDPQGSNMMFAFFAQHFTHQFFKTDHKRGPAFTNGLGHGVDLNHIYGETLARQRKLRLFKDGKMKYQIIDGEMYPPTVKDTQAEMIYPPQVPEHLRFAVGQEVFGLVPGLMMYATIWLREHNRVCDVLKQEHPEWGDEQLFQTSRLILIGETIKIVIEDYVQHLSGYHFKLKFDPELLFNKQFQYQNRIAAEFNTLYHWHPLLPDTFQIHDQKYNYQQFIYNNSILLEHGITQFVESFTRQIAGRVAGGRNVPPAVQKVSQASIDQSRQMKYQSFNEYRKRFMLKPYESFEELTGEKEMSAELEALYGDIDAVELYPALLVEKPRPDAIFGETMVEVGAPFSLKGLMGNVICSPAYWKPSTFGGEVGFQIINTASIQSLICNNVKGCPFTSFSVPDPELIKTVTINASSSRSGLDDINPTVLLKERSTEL
As to the kind of experiment: Cyclooxygenase inhibition assay (Cayman kit No. 701050, COX peroxidase activity), COX-2. It counts as biochemical. As to conditions: for IC50: incubation for 2 min, mean (SD), n = 3; for Ratio: COX-2/COX-1: ratio of IC50 values (COX-2/COX-1). The method, then:
Absorbance was measured with a microplate reader at 590 nm. […] Ratios of IC50 values (COX-2/COX-1) were also calculated

A further data set deals with T2, COX-1 (Ovis aries, UniProt P05979).
T2 construct: purchased Cayman 701050
T2 sequence (P05979 25-600): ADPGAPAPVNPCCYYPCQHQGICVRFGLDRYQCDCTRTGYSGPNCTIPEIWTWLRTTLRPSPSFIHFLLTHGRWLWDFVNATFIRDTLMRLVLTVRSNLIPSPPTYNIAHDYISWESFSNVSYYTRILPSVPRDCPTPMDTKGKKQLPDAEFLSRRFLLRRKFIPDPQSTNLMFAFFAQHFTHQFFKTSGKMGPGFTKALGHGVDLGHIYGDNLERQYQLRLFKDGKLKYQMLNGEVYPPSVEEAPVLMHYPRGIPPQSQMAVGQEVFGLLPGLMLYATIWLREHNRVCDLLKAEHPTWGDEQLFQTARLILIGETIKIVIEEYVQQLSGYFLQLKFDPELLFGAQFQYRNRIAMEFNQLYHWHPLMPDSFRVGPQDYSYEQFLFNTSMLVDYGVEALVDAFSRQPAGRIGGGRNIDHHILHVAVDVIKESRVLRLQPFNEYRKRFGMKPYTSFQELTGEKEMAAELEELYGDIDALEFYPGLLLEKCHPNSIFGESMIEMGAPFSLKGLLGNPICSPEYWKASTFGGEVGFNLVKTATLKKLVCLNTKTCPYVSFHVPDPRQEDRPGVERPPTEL
As to the kind of experiment: Cyclooxygenase inhibition assay (Cayman kit No. 701050, COX peroxidase activity), COX-1. It counts as biochemical. To be noted: incubation for 2 min; mean (SD); n = 3. The method, then: Cayman kit No. 701050 was used to evaluate the COX peroxidase activity of all compounds at a concentration of 100 µM. Absorbance was measured with a microplate reader at 590 nm. Concentrations at which 50% inhibition of enzyme activity occurred were calculated separately for COX-1 and COX-2 (IC50). Ratios of IC50 values (COX-2/COX-1) were also calculated

The subject of data set [2] is NHDF cells. As to the kind of experiment: DNA damage (chromatin relaxation, nucleus/halo diameter) after LPS preincubation. The data set is classed as cell-based. To be noted: ratio of cell nucleus diameter to halo diameter; 1 h with compound after 24 h with 50 µM LPS; (SD) n = 6. On the procedure:
However, the cells were detached at the surface after 1h of incubation with the tested compound for evaluating DNA damage. The cells were then subjected to an analogous procedure as described in Grajzer et al..
as §2, §3

Data set [3] deals with NHDF cells. As to the kind of experiment: Cell viability, MTT assay. It counts as cell-based. To be noted: Homo sapiens, NHDF cell cultures, 24 h incubation, read-out: Cell Viability IC50 (µM) (SD). On the procedure:
The NHDF cells obtained from ATCC (Manasas, VA, USA) were incubated with DMEM without phenol red supplemented with 10% fetal bovine serum (FBS), 2 mM L-glutamine, 1.25 µg/mL amphotericin B and 100 µg/mL gentamicin at 37 °C in a humidified 5% CO2/95% air atmosphere incubator. The cell culture was examined under the microscope twice a week, and cells were passaged if confluence was greater than 70% or the medium was replaced with fresh medium.
The […] were prepared by dissolving compounds in DMSO and then stored at −20 °C for up to 6 months. Before the biological experimental, the working solution was dissolved in the medium in the concentration range of 10, 50, and 100 µM.
To evaluated cell viability, an MTT assay was performed. After incubation of cells with the tested compounds for 24 h, the supernatant was removed, and 1 mg/mL MTT solution was applied for 2 h. Next, the formazan was dissolved with propanol for 30 min, and absorbance was measured at 570 nm using a microplate reader. The results are presented as IC50.
(Tetrazolium assays rely on reduction of a dye to a coloured formazan, in cell work by metabolically active cells.)

The subject of data set [4] is NHDF cells. As to the kind of experiment: ROS level, DCF-DA assay after LPS preincubation. It counts as cell-based. As to conditions: 100 µM compound after LPS preincubation. On the procedure:
as §1, §2, §3

`O=C1c2ccccc2C(=O)N1CN1CCN(c2ccccc2)CC1` [A, N-[(4-phenyl-1-piperazinyl)methyl]-1H-isoindole-1,3(2H)-dione] came in with a melting point of 160 to 161 °C. Further, the “NO Level (pg/mL)” value in the data set with NHDF cells [1] was 6.4 (0.14) pg/mL. Also, on COX-2, 107 µM corresponded to half-maximal inhibition (IC50) and the “Ratio: COX-2/COX-1” value was 0.45. Besides, the IC50 against COX-1 is 238 µM. Further, the “DNA Damage” value in the data set with NHDF cells [2] is given as 15.2 (0.04) *.

With `COc1ccccc1N1CCN(CN2C(=O)c3ccccc3C2=O)CC1` [B, N-[(4-(2-methoxyphenyl)-1-piperazinyl)methyl]-1H-isoindole-1,3(2H)-dione], the melting point lay within 134 to 135 °C. On COX-2, the midpoint of inhibition, the IC50, lay at 68.5 µM; the “Ratio: COX-2/COX-1” value is 1.10 and 0.96. This compound gave an IC50 against COX-1 of 71 µM. Moreover, in the data set on NHDF cells [2], the “DNA Damage” value is given as 19.6 (0.09) *.

On to `O=C1c2ccccc2C(=O)N1CN1CCN(c2cccc(C(F)(F)F)c2)CC1` [Compound C], for which the melting point fell in the range of 147 to 148 °C. Moreover, the “NO Level (pg/mL)” value with NHDF cells [1] is 8.2 (0.03) * pg/mL. At COX-2, half-maximal inhibition (IC50) required 70.3 µM and the “Ratio: COX-2/COX-1” value worked out at 0.67. At COX-1, this compound registered an IC50 of 104 µM. Also, the “DNA Damage” value in the data set on NHDF cells [2] is on record as 23.2 (0.07) *.

Compound `O=C1c2ccccc2C(=O)N1CN1CCN(C(c2ccccc2)c2ccccc2)CC1` [Compound D, N-[(4-(diphenyl-methyl)-1-piperazinyl)methyl]-1H-isoindole-1,3(2H)-dione] gave a melting point of 206 to 207 °C. Further, in the data set with NHDF cells [1], the “NO Level (pg/mL)” value is reported as 7.4 (0.12) pg/mL. For the same compound, the half-maximal inhibitory concentration (IC50) in the data set with NHDF cells [3] turned out to be 90.3 µM. At COX-2, 72.8 µM corresponded to half-maximal inhibition (IC50) and the “Ratio: COX-2/COX-1” value stood at 1.10. On COX-1, this compound had an IC50 of 66.2 µM. Moreover, in the data set with NHDF cells [2], the “DNA Damage” value is given as 17.3 (0.04) *.

As to `COc1cccc(N2CCN(C(=O)CN3C(=O)c4ccccc4C3=O)CC2)c1` [Compound H, 2-{2-oxo-2-[4-(3-methoxy)-phenyl-1-piperazinyl]ethyl}-1H-isoindole-1,3(2H)-dione], the melting point was in the range of 155 to 156 °C. For the same compound, the IC50 in the data set with NHDF cells [3] was 94.1 µM. For the same compound, on COX-2, inhibition was half-maximal at 43.8 µM (IC50) and the “Ratio: COX-2/COX-1” value stood at 0.25. In addition, the IC50 against COX-1 was 176 µM. For the same compound, the “DNA Damage” value in the data set on NHDF cells [2] is 17.1 (0.04) *. In the data set on NHDF cells [4], the “scavenging of ROS compared to control” value is “approximately 29.0%”.

`COc1ccc(N2CCN(C(=O)CN3C(=O)c4ccccc4C3=O)CC2)cc1` [Compound I, 2-{2-oxo-2-[4-(4-methoxy)-phenyl-1-piperazinyl]ethyl}-1H-isoindole-1,3(2H)-dione] had a melting point of 204 to 207 °C. Moreover, the IC50 in the data set on NHDF cells [3] was determined as 93.3 µM. Also, on COX-2, the IC50 was 46.2 µM and the “Ratio: COX-2/COX-1” value came to 0.49. The compound further returned an IC50 against COX-1 of 94.4 µM. The “DNA Damage” value with NHDF cells [2] is reported as 19.2 (0.08) *. Further, the “scavenging of ROS compared to control” value in the data set on NHDF cells [4] is “approximately 29.0%”.

With `O=C(CN1C(=O)c2ccccc2C1=O)N1CCN(c2ccccc2)CC1` [E, 2-[2-oxo-2-(4-phenyl-1-piperazinyl)ethyl]-1H-isoindole-1,3(2H)-dione], the melting point is 180 °C. The “NO Level (pg/mL)” value with NHDF cells [1] is listed as 5.3 (0.07) * pg/mL. For the same compound, at COX-2, the midpoint of inhibition, the IC50, lay at 53.4 µM and the “Ratio: COX-2/COX-1” value is given as 0.70. Also, the midpoint of inhibition against COX-1, the IC50, lay at 76.7 µM. In addition, the “DNA Damage” value with NHDF cells [2] is 18.4 (0.07) *.

`O=C(CN1C(=O)c2ccccc2C1=O)N1CCN(c2cccc(C(F)(F)F)c2)CC1` [F, 2-{2-oxo-2-[4-(3-trifluoromethyl)-phenyl-1-piperazinyl]ethyl}-1H-isoindole-1,3(2H)-dione] yielded a melting point of 206 to 208 °C. Further, the “NO Level (pg/mL)” value in the data set with NHDF cells [1] was 9.1 (0.07) pg/mL. On COX-2, the IC50 worked out at 47.6 µM and the “Ratio: COX-2/COX-1” value came to 0.28. This compound also came in with an IC50 on COX-1 of 171 µM. In addition, the “DNA Damage” value in the data set on NHDF cells [2] is given as 20.1 (0.03) *.

As for `COc1ccccc1N1CCN(C(=O)CN2C(=O)c3ccccc3C2=O)CC1` [G, 2-{2-oxo-2-[4-(2-methoxy)-phenyl-1-piperazinyl]ethyl}-1H-isoindole-1,3(2H)-dione], the melting point lay within 152 to 154 °C. Besides, the 50% inhibitory concentration (IC50) in the data set with NHDF cells [3] was found to be 96.8 µM. This compound also had an IC50 against COX-2 of 65.8 µM. The same compound had an IC50 against COX-1 of 101 µM. Further, in the data set with NHDF cells [2], the “DNA Damage” value is 18.7 (0.07) *. Moreover, the “scavenging of ROS compared to control” value in the data set on NHDF cells [4] is “approximately 29.0%”.
